Source: US9809587B2, “Pesticidally active heterocyclic derivatives with sulphur containing substituents” (Syngenta Participations AG, priority 2014, dated 2017)

Tests used:
Assay type in all cases: in vivo
[1] = system: Diabrotica balteata (Corn Root Worm); experiment: Diabrotica balteata (corn root worm), sprayed maize sprouts; conditions: 96 h, application rate of 200 ppm, L2 larvae on maize sprouts, 4 days after infestation
Protocol: Example B2: Diabrotica balteata (Corn Root Worm)
Maize sprouts, placed on an agar layer in 24-well microtiter plates were treated with aqueous test solutions prepared from 10′000 ppm DMSO stock solutions by spraying. After drying, the plates were infested with L2 larvae (6 to 10 per well). The samples were assessed for mortality and growth inhibition in comparison to untreated samples 4 days after infestation.

[2] = system: Myzus persicae (Green Peach Aphid); experiment: Myzus persicae (green peach aphid), sprayed sunflower leaf discs; conditions: foliar, 144 h, application rate of 200 ppm, mixed ages on sunflower leaf discs, 6 days after infestation
Protocol: Example B4: Myzus persicae (Green Peach Aphid)
Sunflower leaf discs were placed on agar in a 24-well microtiter plate and sprayed with aqueous test solutions prepared from 10′000 ppm DMSO stock solutions. After drying, the leaf discs were infested with an aphid population of mixed ages. The samples were assessed for mortality 6 days after infestation.

[3] = system: Euschistus heros (Neotropical Brown Stink Bug); experiment: Euschistus heros (neotropical brown stink bug), sprayed soybean leaf; conditions: 120 h, application rate of 200 ppm, N-2 nymphs on soybean leaf, 5 days after infestation
Protocol: Example B3: Euschistus heros (Neotropical Brown Stink Bug)
Soybean leaf on agar in 24-well microtiter plates were sprayed with aqueous test solutions prepared from 10′000 ppm DMSO stock solutions. After drying the leaf were infested with N-2 nymphs. The samples were assessed for mortality in comparison to untreated samples 5 days after infestation.

[4] = system: Plutella xylostella (Diamond Back Moth); experiment: Plutella xylostella (diamond back moth), treated artificial diet; conditions: 120 h, application rate of 200 ppm, L2 larvae on artificial diet, 5 days after infestation, read-out: effect in at least one of the two categories (mortality or growth inhibition)
Protocol: Example B6: Plutella xylostella (Diamond Back Moth)
24-well microtiter plates with artificial diet were treated with aqueous test solutions prepared from 10′000 ppm DMSO stock solutions by pipetting. After drying, the plates were infested with L2 larvae (10 to 15 per well). The samples were assessed for mortality and growth inhibition in comparison to untreated samples 5 days after infestation.
The following compounds gave an effect of at least 80% in at least one of the two categories (mortality or growth inhibition) at an application rate of 200 ppm: […]

[5] = system: Spodoptera littoralis (Egyqptian Cotton Leaf Worm); experiment: Spodoptera littoralis (Egyptian cotton leaf worm), sprayed cotton leaf discs; conditions: foliar, 72 h, application rate of 200 ppm, L1 larvae on cotton leaf discs, 3 days after infestation
Protocol: Example B7: Spodoptera littoralis (Egyqptian Cotton Leaf Worm)
Cotton leaf discs were placed on agar in 24-well microtiter plates and sprayed with aqueous test solutions prepared from 10′000 ppm DMSO stock solutions. After drying the leaf discs were infested with five L1 larvae. The samples were assessed for mortality, anti-feedant effect, and growth inhibition in comparison to untreated samples 3 days after infestation. Control of Spodoptera littoralis by a test sample is when at least one of mortality, anti-feedant effect, and growth inhibition is higher than the untreated sample.

[6] = system: Spodoptera littoralis (Egyqptian Cotton Leaf Worm); experiment: Spodoptera littoralis (Egyptian cotton leaf worm), compound in agar taken up by lettuce roots; conditions: 144 h, test rate of 12.5 ppm, uptake by lettuce roots from agar, 6 days after infestation, read-out: effect in at least one of the three categories (mortality, anti-feedancy, or growth inhibition)
Excerpt: Example B8: Spodoptera littoralis (Egyqptian Cotton Leaf Worm)
Test compounds were applied by pipette from 10′000 ppm DMSO stock solutions into 24-well plates and mixed with agar. Lettuce seeds were placed on the agar and the multi well plate was closed by another plate which contains also agar. After 7 days the roots have absorbed the compound and the lettuce has grown into the lid plate. The lettuce leafs were now cut off into the lid plate. Spodoptera eggs were pipetted through a plastic stencil on a humid gel blotting paper and the plate closed with it. The samples were assessed for mortality, anti-feedant effect and growth inhibition in comparison to untreated samples 6 days after infestation.
The following compounds gave an effect of at least 80% in at least one of the three categories (mortality, anti-feedancy, or growth inhibition) at a test rate of 12.5 ppm: […]

[7] = system: Bemisia tabaci (Cotton White Fly); experiment: Bemisia tabaci (cotton white fly), sprayed cotton leaf discs; conditions: foliar, 144 h, application rate of 200 ppm, adult white flies on cotton leaf discs, 6 days after incubation
Protocol: Example B1: Bemisia tabaci (Cotton White Fly)
Cotton leaf discs were placed on agar in 24-well microtiter plates and sprayed with aqueous test solutions prepared from 10′000 ppm DMSO stock solutions. After drying the leaf discs were infested with adult white flies. The samples were checked for mortality 6 days after incubation.

CCS(=O)(=O)c1cc(-c2ncc(C(F)(F)F)cc2F)cnc1-c1nc2cc(C(F)(F)F)ncc2n1C [Compound P54]
≥ 80%: mortality at 200 ppm [1] | mortality at 200 ppm [2] | mortality at 200 ppm [3] | percent effect (mortality or growth inhibition) at 200 ppm [4] | percent control (mortality, anti-feedant effect or growth inhibition) at 200 ppm [5] | percent control (mortality, anti-feedancy or growth inhibition) at 12.5 ppm [6]

CCS(=O)(=O)c1cc(-c2cccnc2)cnc1-c1nc2cc(C(F)(F)F)ncc2n1C [Compound P80]
≥ 80%: mortality at 200 ppm [7] | mortality at 200 ppm [2] | percent effect (mortality or growth inhibition) at 200 ppm [4] | percent control (mortality, anti-feedant effect or growth inhibition) at 200 ppm [5]

CCS(=O)(=O)c1cc(-c2ncc(Cl)cc2Cl)cnc1-c1nc2cc(C(F)(F)F)ncc2n1C [Compound P44]
≥ 80%: mortality at 200 ppm [1] | mortality at 200 ppm [2] | mortality at 200 ppm [3] | percent effect (mortality or growth inhibition) at 200 ppm [4] | percent control (mortality, anti-feedant effect or growth inhibition) at 200 ppm [5] | percent control (mortality, anti-feedancy or growth inhibition) at 12.5 ppm [6]

CCS(=O)(=O)c1cc(-c2ccncc2)cnc1-c1nc2cc(C(F)(F)F)ncc2n1C [Compound P81]
≥ 80%: mortality at 200 ppm [7] | mortality at 200 ppm [2] | mortality at 200 ppm [3] | percent effect (mortality or growth inhibition) at 200 ppm [4]

CCS(=O)(=O)c1cc(-c2ncccc2C(F)(F)F)cnc1-c1nc2cc(C(F)(F)F)ncc2n1C [Compound P52]
≥ 80%: mortality at 200 ppm [1] | mortality at 200 ppm [2] | mortality at 200 ppm [3] | percent effect (mortality or growth inhibition) at 200 ppm [4] | percent control (mortality, anti-feedant effect or growth inhibition) at 200 ppm [5] | percent control (mortality, anti-feedancy or growth inhibition) at 12.5 ppm [6]

CCS(=O)(=O)c1cc(-c2cc(C)ccn2)cnc1-c1nc2cc(C(F)(F)F)ncc2n1C [Compound P57]
≥ 80%: mortality at 200 ppm [2] | mortality at 200 ppm [3] | percent effect (mortality or growth inhibition) at 200 ppm [4] | percent control (mortality, anti-feedant effect or growth inhibition) at 200 ppm [5] | percent control (mortality, anti-feedancy or growth inhibition) at 12.5 ppm [6]

CCS(=O)(=O)c1cc(-c2nc(C)cc(C3CC3)n2)cnc1-c1nc2cc(C(F)(F)F)ncc2n1C [Compound P23, 2-[5-(4-cyclopropyl-6-methyl-pyrimidin-2-yl)-3-ethylsulfonyl-2-pyridyl]-3-methyl-6-(trifluoromethyl)imidazo[4,5-c]pyridine]
≥ 80%: mortality at 200 ppm [1] | mortality at 200 ppm [2] | mortality at 200 ppm [3] | percent effect (mortality or growth inhibition) at 200 ppm [4] | percent control (mortality, anti-feedant effect or growth inhibition) at 200 ppm [5]

CCS(=O)(=O)c1cc(-c2ccc(C)cn2)cnc1-c1nc2cc(C(F)(F)F)ncc2n1C [Compound P55]
≥ 80%: mortality at 200 ppm [1] | mortality at 200 ppm [2] | mortality at 200 ppm [3] | percent effect (mortality or growth inhibition) at 200 ppm [4] | percent control (mortality, anti-feedant effect or growth inhibition) at 200 ppm [5]

CCS(=O)(=O)c1cc(-c2cccc3c2OC(F)(F)O3)cnc1-c1nc2cc(C(F)(F)F)ncc2n1C [Compound P72]
≥ 80%: mortality at 200 ppm [1] | mortality at 200 ppm [2] | mortality at 200 ppm [3] | percent effect (mortality or growth inhibition) at 200 ppm [4] | percent control (mortality, anti-feedant effect or growth inhibition) at 200 ppm [5] | percent control (mortality, anti-feedancy or growth inhibition) at 12.5 ppm [6]

CCS(=O)(=O)c1cc(-c2ncccc2C)cnc1-c1nc2cc(C(F)(F)F)ncc2n1C [Compound P50]
≥ 80%: mortality at 200 ppm [1] | mortality at 200 ppm [2] | mortality at 200 ppm [3] | percent effect (mortality or growth inhibition) at 200 ppm [4] | percent control (mortality, anti-feedant effect or growth inhibition) at 200 ppm [5] | percent control (mortality, anti-feedancy or growth inhibition) at 12.5 ppm [6]

CCS(=O)(=O)c1cc(-c2ccsc2)cnc1-c1nc2cc(C(F)(F)F)ncc2n1C [Compound P82]
≥ 80%: mortality at 200 ppm [1] | mortality at 200 ppm [2] | percent effect (mortality or growth inhibition) at 200 ppm [4] | percent control (mortality, anti-feedant effect or growth inhibition) at 200 ppm [5] | percent control (mortality, anti-feedancy or growth inhibition) at 12.5 ppm [6]

CCS(=O)(=O)c1cc(-c2ccc(C#N)nc2)cnc1-c1nc2cc(C(F)(F)F)ncc2n1C [Compound P65]
≥ 80%: mortality at 200 ppm [1] | mortality at 200 ppm [2] | mortality at 200 ppm [3] | percent effect (mortality or growth inhibition) at 200 ppm [4] | percent control (mortality, anti-feedant effect or growth inhibition) at 200 ppm [5]

CCS(=O)(=O)c1cc(-c2ncccc2OC(F)F)cnc1-c1nc2cc(C(F)(F)F)ncc2n1C [Compound P43]
≥ 80%: mortality at 200 ppm [1] | mortality at 200 ppm [2] | mortality at 200 ppm [3] | percent effect (mortality or growth inhibition) at 200 ppm [4] | percent control (mortality, anti-feedant effect or growth inhibition) at 200 ppm [5]

CCS(=O)(=O)c1cc(-c2ccnc(Cl)n2)cnc1-c1nc2cc(C(F)(F)F)ncc2n1C [Compound P105]
≥ 80%: mortality at 200 ppm [1] | mortality at 200 ppm [2] | percent effect (mortality or growth inhibition) at 200 ppm [4] | percent control (mortality, anti-feedant effect or growth inhibition) at 200 ppm [5] | percent control (mortality, anti-feedancy or growth inhibition) at 12.5 ppm [6]

CCS(=O)(=O)c1cc(-n2ccc(C#N)n2)cnc1-c1nc2cc(C(F)(F)F)ncc2n1C [Compound P98]
≥ 80%: mortality at 200 ppm [1] | mortality at 200 ppm [2] | mortality at 200 ppm [3] | percent effect (mortality or growth inhibition) at 200 ppm [4] | percent control (mortality, anti-feedant effect or growth inhibition) at 200 ppm [5]

CCS(=O)(=O)c1cc(-c2cnc3nc(C(F)(F)F)ccn23)cnc1-c1nc2cc(C(F)(F)F)ncc2n1C [Compound P36]
≥ 80%: mortality at 200 ppm [1] | mortality at 200 ppm [2] | mortality at 200 ppm [3] | percent effect (mortality or growth inhibition) at 200 ppm [4] | percent control (mortality, anti-feedant effect or growth inhibition) at 200 ppm [5]

CCS(=O)(=O)c1cc(-c2cnc(Cl)nc2)cnc1-c1nc2cc(C(F)(F)F)ncc2n1C [Compound P10]
≥ 80%: mortality at 200 ppm [7]

CCS(=O)(=O)c1cc(-n2nc(C)cc2C)cnc1-c1nc2cc(C(F)(F)F)ncc2n1C [Compound P15]
≥ 80%: mortality at 200 ppm [1] | mortality at 200 ppm [2] | mortality at 200 ppm [3] | percent effect (mortality or growth inhibition) at 200 ppm [4] | percent control (mortality, anti-feedant effect or growth inhibition) at 200 ppm [5]
